From patent publication US4167511A, “Methylsilacyclopentenyl-containing silylating agents and method therefor” (Dow Corning Corporation, priority 1978, dated 1979) come the findings set out here.

The series can be described thus: Silylating power: half-life of silylating agent in excess isopropyl alcohol at 35° C. (1H n.m.r.). Format: physicochemical. As to conditions: for Half-life in Excess Isopropanol: 0.1 ml. silylating agent in 0.5 ml. anhydrous isopropyl alcohol, 35° C., n.m.r. The source says: The compositions of this invention have unexpected silylating power. By the terms silylating and silylation it is meant a process wherein an active-hydrogen, i.e. one bond to an oxygen, sulfur or nitrogen atom, in a compound is replaced with a hydrocarbon-substituted silyl radical. Silylation, according to the process of this invention proceeds rapidly and, in many cases, essentially quantitatively thereby replacing an active-hydrogen with a methylsilacyclopentenyl radical. By silylating power it is meant the ability of a silylating agent to silylate isopropyl alcohol as indicated by the half-life of the silylating agent in excess isopropyl alcohol at 35° C., using standard chemical kinetic measuring methods hereinafter described. Silylating power is inversely related to said half-life.
Standard nuclear magnetic resonance (n.m.r.) tubes, 5 mm. O.D.×205 mm. long, were first charged with 0.1 ml. of the silylating agents listed in the Table and then with 0.5 ml. of anhydrous isopropyl alcohol using a dry box to insure anhydrous conditions. Immediately after the addition of isopropyl alcohol the tubes were stoppered, inverted at least once to mix the reactants, removed from the dry box, and, within 30 seconds after the addition of isopropyl alcohol, were placed in a varian A-60 ^1 H n.m.r. spectometer at 35° C. The n.m.r. spectrometer was preset to record the signal of the hydrogen atoms in the silicon-bonded methyl group. In repeat experiments the n.m.r. spectrometer was preset to record the signal of the hydrogen atoms in the methyl groups of N-methylacetamideor the nitrogen-bound hydrogen atom in epsilon-caprolactam. Where possible the reaction was followed by taking several readings of the appropriate n.m.r. signal intensity over a period of time.
The compositions of this invention have a half-life which is too short to measure by this technique since they are completely reacted before the reaction mixture is placed in the n.m.r. spectrometer.

For “methylsilacyclopentenyl-N-methylacetamide”, the silylating power entry (compared in words with triorganosilyl analogs, inversely related to half-life in excess isopropyl alcohol at 35° C.) is “greater than that of trimethylsilyl-N-methylacetamide, dimethylvinylsilyl-N-methylacetamide, dimethylphenylsilyl-N-methylacetamide and dimethyl-3,3,3-trifluoropropylsllyl-N-methylacetamide”.

`CC(=O)N(C)[Si](C)(C)c1ccccc1`: the “Half-life in Excess Isopropanol” value is 55 min.

`C=C[Si](C)(C)N(C)C(C)=O`: the “Half-life in Excess Isopropanol” value turned out to be 240 min.

Turning to `CC(=O)N(C)[Si](C)(C)CCC(F)(F)F`, the “Half-life in Excess Isopropanol” value worked out at 40 min.
